Where “and” joins values, the source holds several entries; their conditions need not be identical. Equal values may be shown once.
Test system: painful spasm caused by intraperitoneal injection of phenylbenzoquinone in mice
Assay: Siegmund test or Writhing test (phenylbenzoquinone-induced painful spasm)
Assay type: in vivo, mice (male, Swiss strain)
Conditions: esophageal tube, 30 min before phenylbenzoquinone
Experimental: During said tests, the antispasmodic and analgesic activity of phloroglucinol, of paracetamol, and of phloroglucinol combined with paracetamol was evaluated using the Siegmund test or “Writhing test”. The principle of this test, which is familiar to those skilled in the art, is briefly summarized hereinafter. The intraperitoneal injection of phenylbenzoquinone in mice causes a painful spasm, which can be reduced with antispasmodic substances (causal medication) and analgesic substances (symptomatic medication).
The test was carried out on batches of 10 male mice, of the Swiss strain, having an average weight of 22 g±2. The spasmodic and painful syndrome caused by the intraperitoneal injection of 0.25 ml of the phenylbenzoquinone solution is characterized by hind limb stretching movements and dorso-abdominal musculature twisting movements, which accounted for a period of time of 30 min, starting from 15 min following the administration of the phenylbenzoquinone.
An antispasmodic and analgesic effect manifests itself through a reduction in the number of spasmodic attacks, which is dependent on the dose. For each test, the substance being studied is administered by means of an esophageal tube, 30 min before the phenylbenzoquinone.
For experimental ease, the following were used: • phloroglucinol Lyoc (lyophilizate), and • effervescent paracetamol (tablet); the two substances being perfectly soluble and miscible.
To test the products administered in isolation (prior art), on the one hand, phloroglucinol lyocs (lyophilized systems) were dissolved in distilled water, and on the other hand, effervescent paracetamol tablets were solubilized in distilled water (the solution obtained has a pH of 5).
To test the pharmaceutical compositions of the invention, such phloroglucinol lyocs (lyophilized systems) and such effervescent paracetamol tablets were dissolved and solubilized together. The solution which contains the two active ingredients itself also has a pH of 5.
Given the metabolism in this animal species, the mouse, which is more accelerated than in humans, those skilled in the art, specialists in pharmacology, most commonly use doses which are multiples of the human dose in order to be able to readily objectivize the results.
The results are expressed as percentage of inhibition of the spasm and of the pain relative to control animals which receive only 20 ml/kg of distilled water.

Q: How did the “% inhibition of the spasm and of the pain relative to control animals” value (paracetamol 50 mg/kg, mice (repeated in each of four series)) turn out when CC(=O)Nc1ccc(O)cc1 [Paracetamol, 4-acetylaminophenol] was run?
A: The value was 40% and 39% and 37%.

Q: Oc1cc(O)cc(O)c1 [Phloroglucinol, 1,3,5-trihydroxy-benzene] was tested. Which “% inhibition of the spasm and of the pain relative to control animals” value (phloroglucinol 40 mg/kg, mice) did it give?
A: The value was 7%.

Q: What about the “% inhibition of the spasm and of the pain relative to control animals” value (phloroglucinol 80 mg/kg, mice) of the same compound?
A: Its value is 21%.

Q: What about the “% inhibition of the spasm and of the pain relative to control animals” value (phloroglucinol 100 mg/kg, mice) of the same compound?
A: The value was 27%.

Q: What about the “% inhibition of the spasm and of the pain relative to control animals” value (phloroglucinol 120 mg/kg, mice) of the same compound?
A: The value was 32%.

Reference: patent US8148425B2, “Pharmaceutical composition containing phloroglucinol and paracetamol” (Promindus (Actions Promotionnelles Dans l'Industrie et le …, priority 2007, dated 2012)
